Entries after “also recorded” stand apart in the source; their conditions may differ.
Key:
mice = test: Mouse phenotypic seizure liability assay (modified Racine score); assay type: in vivo; conditions: 100 mg/kg i.p.; for seizure liability / behavioral convulsions (modified Racine score): male C57Bl/6 mice, 3 h
Procedure: Brain plasma concentration ratio (Kp) was calculated by dividing brain concentration by plasma concentration for each animal. Unbound brain to unbound plasma concentration ratio (Kp,uu) is calculated using the following formula: Kp,uu = (Brain ng/g x brain fu)/(plasma ng/ml x plasma fu). […]
Behavioral Manifestations of Seizure Activity
To evaluate induction of behavioral manifestation of seizure activity, C57Bl/6 mice received administration of vehicle or 100 mg/kg M1 PAM. Compounds were formulated in 30% Captisol (11) or 10% Tween 80 (2-4 and 12) (pH 7.0) at a concentration of 10 mg/mL and injected i.p. (n = 3). Animals were monitored continuously and scored for behavioral manifestations of seizure activity at 5, 10, 15, and 30 min, and 1 and 3 h. Behavioral manifestations of seizures were scored using a modified Racine scoring system.2 Briefly, a score of 0 represents no behavior alterations; score 1, immobility, mouth and facial movements, or facial clonus; score 2, head nodding, tail extension; score 3, forelimb clonus, repetitive movements; score 4, rearing and tonic clonic seizure; and score 5, continuous rearing and falling, severe generalized tonic clonic seizure.

[1] = Plasma protein binding, dog; assay type: in vitro ADME; conditions: pH 7.4, read-out: fu,plasma dog
Procedure: Plasma protein binding and Brain homogenate binding: Determination of fraction unbound (f u) in plasma was conducted in vitro via equilibrium dialysis using HTDialysis (HTD) membrane plates. The top half of the plate was filled with 100 uL of Dubelco’s Phosphate Buffered Saline, pH 7.4 (DPBS). Compounds were diluted into plasma from each species (5 µM final concentration), which was aliquoted in triplicate to the ‘bottom half’ of the prepared HTD plate wells. The HTD plate was sealed and incubated for 6 hours at 37 °C. Following incubation, each well (both top and bottom halves) were transferred (20 µL) to the corresponding wells of a 96-shallow-well (V-bottom) plate. […]
The unbound fraction (f u) was calculated following the equation below, and mean values for each species were calculated from 3 replicates.
A similar approach was used to determine the degree of brain homogenate binding, which employed the same methodology and procedure with the following modifications: 1) a final compound concentration of 1 μM was used, 2) naïve rat brains were homogenized in DPBS (1:3 composition of brain: DPBS, w/w) using a Mini-Bead Beater™ machine in order to obtain brain homogenate, which was then treated in the same manner as the plasma samples in the previously described plasma protein binding assay. Fraction unbound for both plasma and brain samples was determined using Equation 4. […]

Melatonin MT1 = test: Eurofins radioligand binding; parameters: species or system Human; conditions: specific binding
[2] = IV/PO pharmacokinetics, rat; assay type: in vivo; conditions: rat (SD), dose iv/po 1/10 mg/kg; for clearance / Vd / half-life: Sprague-Dawley, plasma, 1 mg/kg; for clearance: read-out: CLp; for Vd: read-out: Vss; for half-life: read-out: elimination t1/2 (converted)
Procedure: We next conducted multispecies IV/PO PK in parallel as a potential discerning data set. […] With a strong desire to employ dog as the nonrodent safety species, the challenge to address the low %F in dog was enough to triage PAM 12 and focus on the advancement of 11 (Table 3). […]
Pharmacokinetic profiles in rats following oral single escalating doses Single escalating oral dosing in Sprague-Dawley rats was performed at Frontage Laboratories according to their non-GLP Standard Operating Procedure and IACUC protocols. In short, compounds were formulated in 10% Tween 80 in water and dosed at 10 mg/kg. At different times, arterial blood was collected from a femoral artery catheter, and compound concentration was determined in plasma by LC-MS/MS following their non-GLP protocol. PK parameters were determined using Phoenix WinNonlin software (version 6.3). […]

[3] = In vivo rat MET ID (plasma)
Procedure: The team was still puzzled by the severe cholinergic adverse events observed in rats at the 100 and 300 mg/kg arms of the dose escalation study, as this was not consistent with the past 20 years of M1 PAM research. Could the N-demethylated metabolite A (24) be responsible? Due to the disconnect between liver S9 and hepatocytes, we felt it was prudent to examine in vivo rat MET ID at doses of 100 and 300 mg/kg to ensure 24 is produced upon in vivo oral dosing after 5–30 min and 160–240 min, and to determine if any other putative metabolites are generated at detectable levels (Figure 10). Across both doses and time points, 73–81% of the parent 11 remained. Metabolite 24 was produced in vivo at 2.2 to 5.6% relative abundance and lower than from in vitro incubations, along with two oxidative metabolites, a dioxygenated species M461 (26) and a mono-oxygenated species M445 (27) on the tetrahydropyranyl moiety. […] A species such as 27 would resemble the hydroxy pyranyl congeners known to be potent ago-PAMs and prone to severe cholinergic side effects, and the potential for 24 to elicit similar cholinergic toxicity was unknown.

Structure (SMILES)	seizure liability / behavioral convulsions (modified Racine score) (mice)	fraction unbound at 6 h, 5 µM [1]	% Inhibition at 10 µM (Melatonin MT1)	clearance [2]	Vd [2]	half-life [2]	F (%) po [2]	Relative Abundance (%) ([3]; 11 dosed 100mg, 5-30 min)	Relative Abundance (%) ([3]; 11 dosed 100mg, 60-240 min)	Relative Abundance (%) ([3]; 11 dosed 300mg, 5-30 min)	Relative Abundance (%) ([3]; 11 dosed 300mg, 160-240 min)	total brain exposure (mice; mouse)
Cn1ccc(-c2ccc(Cc3cc(C(=O)NC4CCOCC4)nc4ccsc34)cc2)n1 [compound 12]	did not induce seizure liability; also recorded: did not cause any observed adverse effects	0.018	70%	33 mL/min/kg	8.2 L/kg	5.3 h	100%	–	–	–	–	–
Cn1ccc2nc(C(=O)NC3CCOCC3)cc(Cc3ccc(-c4cc[nH]n4)cc3)c21 [compound 24]	–	–	–	–	–	–	–	2.2%	5.6%	1.7%	3.2%	–
Cn1ccc(-c2ccc(Cc3cc(C(=O)NC4CCOCC4)nc4ccn(C)c34)cc2)n1 [compound 11]	did not induce seizure liability; also recorded: did not cause any observed adverse effects	0.06	7%	26 mL/min/kg	3.2 L/kg	6.1 h	66%	81.0%	74.0%	79.4%	73.1%	1.04 µM

From paper PMC11413853, “Discovery of VU6007496: Challenges in the Development of an M1 Positive Allosteric Modulator Backup Candidate” (ACS Chemical Neuroscience, 2024)
